Results reported in paper PMC9918429, “ATX-101, a cell-penetrating protein targeting PCNA, can be safely administered as intravenous infusion in patients and shows clinical activity in a Phase 1 study” (Oncogene, 2022).
Entries after “also recorded” stand apart in the source; their conditions may differ. Ends that are not written are not given here.

Legend:
[1] = Plasma pharmacokinetics of ATX-101 on first infusion day, non-compartmental (Phoenix WinNonlin); conditions: for tmax Median [Min;Max]: from infusion start
Description: Blood samples for a complete pharmacokinetic (PK) profile were collected on the first infusion day. On days 8, 15, and 36 samples were collected during the infusion only. Plasma trough levels were assessed on Days 3 and Day 43.
Primary PK Population: patients with at least 2 measurable plasma concentration time points after the end of infusion on D1

[2] = Full-length peptide in cell culture media after peptide addition; assay type: in vitro ADME; conditions: cell cultures, 1–2 h after the peptide addition; unpublished data
advanced solid tumors = experiment: Tumor assessment by investigators according to RECIST V1.1; assay type: in vivo, human
Description: Tumors were assessed by investigators according to RECIST V1.1 at baseline, after 6 weeks and every 3 months thereafter. Efficacy Population: patients with at least one tumor assessment (RECIST) after treatment start

[3] = test system: patients with advanced solid tumors; experiment: Phase 1 first-in-human study, weekly intravenous ATX-101 infusion: adverse events, DLT, infusion-related reactions (CTCAE v4.03); assay type: in vivo
Description: Here we report results of the ATX-101 first-in-human study in patients with advanced solid tumors. This open-label, single arm Phase 1 study, consisting of two sub-studies, investigated 4 doses of ATX-101 (20, 30, 45, and 60 mg/m^2) administered intravenously every week. In a first, dose-escalation study pre-defined dose-limiting toxicities and PK were assessed (for DLT definition see Supplementary Table 1). If, after 6 weeks, no tumor progression was measured, treatment could be continued in a second, long-term follow-up study until disease progression or unacceptable toxicity with the primary objective safety/tolerability. Efficacy was a secondary endpoint in both sub-studies. The studies were registered in the Australian New Zealand Clinical Trials Registry (ANZCTR) under the following IDs: 375262 and 375319. Details on methods are given in the Supplementary information.
This Phase 1, open-label, single arm, first-in-human study consisted of two sub-studies. Study ATX101-01 was a dose escalation study in accordance with the traditional 3+3 escalation design^1. Patients were treated over 6 weeks when the first tumor assessment was done. In case of disease stabilization or tumor response, patients could continue treatment in the long-term follow-up study ATX101-02. The data analysis has been combined for both studies.
ATX-101 was administered weekly as intravenous infusion.
Due to the occurrence of infusion related reactions (IRR) in the first patient, a premedication was implemented for subsequent patients. Premedication was optimized by the Safety Monitoring Committee (SMC) during the study resulting in the final recommendation to administer corticosteroids, paracetamol, H1 and H2 inhibitors. This medication became standard practice in Cohort 3. Montelukast (anti-leukotriene) was added in Cohort 4. In addition, on each infusion day, the infusion rate had to be increased in 5 steps from 5 mg/h to a maximum of 120 mg/h.
ATX-101 was administered in 4 dosing cohorts. The starting dose was 20 mg/m², escalated to 30 mg/m², 45 mg/m² and 60 mg/m². An SMC, comprising all principal investigators and medical monitors of sponsor and CRO, recommended dose changes and modifications after the end of each completed cohort and during the entire study.
Toxicities were graded as mild, moderate, severe, life threatening or related to death using the Common Terminology Criteria for Adverse Events (CTCAE) Version 4.03. Safety assessments included the incidence of dose limiting toxicities (DLTs), treatment-emergent adverse events (TEAE), laboratory parameters, ECG, performance status, physical examinations. DLT were defined upfront, the DLT period included the first three treatment weeks.

cell cultures = conditions: cited from earlier work
[4] = 30 mg/m^2 i.v. infusion, first infusion day, plasma, primary PK population, n = 1
[5] = 45 mg/m^2 i.v. infusion, first infusion day, plasma, primary PK population, mean (SD), n = 4
[6] = 60 mg/m^2 i.v. infusion, first infusion day, plasma, primary PK population, mean (SD), n = 6
[7] = 60 mg/m^2 i.v. infusion, first infusion day, plasma, primary PK population, mean (SD), n = 8

Substance: Ac-MDRWLVKWKKKRKIRRRRRRRRRRR (N-terminus assumed) [ATX-101]
- tmax Median [Min;Max] ([1]; 20 mg/m^2 i.v. infusion, first infusion day, plasma, primary PK population, n = 1): 2.02 [N/A] h
- tmax Median [Min;Max] [1, 4]: 2.98 [N/A] h
- CL [1, 4]: 14,400 mL/h/m^2
- Vz [1, 4]: 7970 mL/m^2
- kel [1, 4]: 1.81 h⁻¹
- tmax Median [Min;Max] ([1]; 45 mg/m^2 i.v. infusion, first infusion day, plasma, primary PK population, median [min;max], n = 4): 2.37 [1.32;2.82] h
- AUC0-t [1, 5]: 1980 (427) h × ng/mL
- AUC(0-inf) [1, 5]: 2200 (591) h × ng/mL
- CL [1, 5]: 21,500 (6120) mL/h/m^2
- Cmax [1, 5]: 1150 (166) ng/mL
- Vz [1, 5]: 13,100 (6830) mL/m^2
- kel [1, 5]: 2.25 (1.57) /h
- tmax Median [Min;Max] ([1]; 60 mg/m^2 i.v. infusion, first infusion day, plasma, primary PK population, median [min;max], n = 8): 4.75 [1.60;9.12] h
- CL [1, 6]: 17,800 (5880) mL/h/m^2
- MRT0-inf [1, 6]: 1.54 (0.66) h
- Vz [1, 6]: 12,900 (5520) mL/m^2
- kel [1, 6]: 1.51 (0.46) /h
- AUC0-t [1, 7]: 3320 (1260) h × ng/mL
- Cmax [1, 7]: 1320 (815) ng/mL
- Elimination half-life in blood ([1]; all dose levels (20, 30, 45, 60 mg/m^2)): less than 30 min
- AUC0-t ([1]; human, plasma, iv, 20 mg/m2): 666 ng·h/mL
- Cmax ([1]; human, plasma, iv, 20 mg/m2): 468 ng/mL
- AUC0-t ([1]; human, plasma, iv, 30 mg/m2): 1900 ng·h/mL
- AUC(0-inf) ([1]; human, plasma, iv, 30 mg/m2): 2080 ng·h/mL
- Cmax ([1]; human, plasma, iv, 30 mg/m2): 720 ng/mL
- MRT ([1]; human, plasma, iv, 30 mg/m2): 36.7 min
- MRT ([1]; human, plasma, iv, 45 mg/m2): 53.3 min
- AUC(0-inf) ([1]; human, plasma, iv, 60 mg/m2): 3700 ng·h/mL
- Full-length peptide in the culture media [2]: no full-length peptide was found
- Median time to treatment discontinuation (advanced solid tumors; 12 patients of long-term follow-up study, range [7–74]): 18 weeks
- Stable disease at the end of the dose escalation study (advanced solid tumors; Efficacy Population (n = 20), after 6 weeks, RECIST V1.1): 70%
- Disease stabilization over at least 4.1 months (advanced solid tumors; Efficacy Population, Cohort 1 (20 mg/m^2)): 50%
- Disease stabilization over at least 4.1 months (advanced solid tumors; Efficacy Population, Cohort 2 (30 mg/m^2)): 33.3%
- Disease stabilization over at least 4.1 months (advanced solid tumors; Efficacy Population, Cohort 3 (45 mg/m^2)): 50%
- Disease stabilization over at least 4.1 months (advanced solid tumors; Efficacy Population, Cohort 4 (60 mg/m^2)): 33.3%
- Partial or complete tumor responses (advanced solid tumors; Efficacy Population, RECIST V1.1): No tumor responses were observed; also recorded: No partial or complete responses were observed
- Stable disease at treatment discontinuation (advanced solid tumors; long-term follow-up, 5 of 12 patients): 41.7%
- Progressive disease at treatment discontinuation (advanced solid tumors; long-term follow-up, 7 of 12 patients): 58.3%
- TEAE: Upper respiratory tract infection ([3]; Overall (n=25), Any Grade): 3 (12.0) n (%)
- TEAE: Abdominal pain upper ([3]; Overall (n=25), Grade 3): 1 (4.0) n (%)
- TEAE: Anemia ([3]; Overall (n=25), Grade 3): 4 (16.0) n (%)
- TEAE: Fatigue ([3]; Overall (n=25), Grade 3): 1 (4.0) n (%)
- TEAE: Hyperglycemia ([3]; Overall (n=25), Grade 3): 2 (8.0) n (%)
- TEAE: Patients with at least one event ([3]; Overall (n=25), Grade 3): 15 (60.0) n (%)
- Patients with infusion-related reactions (mild and moderate) ([3]; all 25 patients, 20-60 mg/m^2 weekly, despite premedication and stepwise infusion rate): 64%
- TEAE of CTCAE grade 4/5 ([3]; all cohorts (n=25)): CTCAEs grade 4/5 were not observed
- Maximum tolerated dose ([3]; doses up to 60 mg/m^2 weekly): not reached
- Dose-limiting toxicities (DLT) ([3]; in vivo): not observed
- IRR Grade 1 (mild), number of patients with IRR ([3]; in vivo): 9 (36.0) n (%)
- IRR Grade 1 (mild), total number of IRRs ([3]; in vivo): 17 N
- IRR Grade 2 (moderate), number of patients with IRR ([3]; in vivo): 13 (52.0) n (%)
- IRR Grade 2 (moderate), total number of IRRs ([3]; in vivo): 45 N
- IRR any grade, total number of IRRs ([3]; in vivo): 62 N
- IRR: Patients with at least one event, number of patients with IRR ([3]; in vivo): 16 (64.0) n (%)
- Patients with IRR in whom IRR was seen on the first infusion day ([3]; in vivo): 83%
- TEAE: Abdominal pain upper ([3]; in vivo): 3 (12.0) n (%)
- TEAE: Anemia ([3]; in vivo): 8 (32.0) n (%)
- TEAE: Diarrhea ([3]; in vivo): 7 (28.0) n (%)
- TEAE: Dysgeusia ([3]; in vivo): 3 (12.0) n (%)
- TEAE: Erythema ([3]; in vivo): 3 (12.0) n (%)
- TEAE: Fatigue ([3]; in vivo): 12 (48.0) n (%)
- TEAE: Headache ([3]; in vivo): 3 (12.0) n (%)
- TEAE: Hyperglycemia ([3]; in vivo): 3 (12.0) n (%)
- TEAE: Infusion related reactions ([3]; in vivo): 16 (64.0) n (%)
- TEAE: Insomnia ([3]; in vivo): 3 (12.0) n (%)
- TEAE: Nausea ([3]; in vivo): 4 (16.0) n (%)
- TEAE: Patients with at least one event ([3]; in vivo): 25 (100.0) n (%)
- TEAE: Pyrexia ([3]; in vivo): 4 (16.0) n (%)
- TEAE: Vascular access site bruising ([3]; in vivo): 3 (12.0) n (%)
- Treatment-related TEAE: Anemia ([3]; in vivo): 2 (8.0) n (%)
- Treatment-related TEAE: Diarrhea ([3]; in vivo): 4 (16.0) n (%)
- Treatment-related TEAE: Dysgeusia ([3]; in vivo): 3 (12.0) n (%)
- Treatment-related TEAE: Erythema ([3]; in vivo): 2 (8.0) n (%)
- Treatment-related TEAE: Fatigue ([3]; in vivo): 8 (32.0) n (%)
- Treatment-related TEAE: Flushing ([3]; in vivo): 2 (8.0) n (%)
- Treatment-related TEAE: Hyperglycemia ([3]; in vivo): 2 (8.0) n (%)
- Treatment-related TEAE: Infusion-related reactions ([3]; in vivo): 16 (64.0) n (%)
- Treatment-related TEAE: Patients with at least 1 event ([3]; in vivo): 23 (92.0) n (%)
- Treatment-related adverse events of grade 3 ([3]; in vivo): one grade 3 adverse event
- Vital signs, ECG, and laboratory values ([3]; in vivo): didn’t show a trend of changes
- Recommended phase 2 dose (RP2D), monotherapy ([3]; in vivo, iv): 60 mg/m^2
- Duration of activity (inhibition of growth, increased apoptosis) after addition of the peptide (cell cultures): up to five days
